Like-named read-outs stand apart in the source and are kept apart here.
How the values were obtained:
[1] = target: T1, human serum albumin (HSA) (Homo sapiens, UniProt P02768); assay: HSA binding by high performance affinity chromatography (HPAC); assay type: in vitro ADME
T1 construct: purchased H13H-2433
Experimental: For the determination of binding to human serum albumin (HSA) using HPLC, a Chiralpak HSA column (50 × 3 mm, 5 μm, H13H-2433) was used at a constant flow rate of 0.5 ml/min. The mobile phase (A: NH4OAc, 50 mM in H2O, pH 6.9 and B: iPrOH) was freshly prepared for each day.

SST2 (AR42J tumor) = target: T2, SST2 (AR42J tumor) (Rattus norvegicus, UniProt P30680); assay: µPET/CT imaging with and without octreotide blocking in AR42J tumor bearing mice; assay type: in vivo; settings: 60 min p.i.
T2 construct: endogenous in cells; host or cells: AR42J xenograft in CD1 nu/nu mice
T2 sequence (P30680 whole entry): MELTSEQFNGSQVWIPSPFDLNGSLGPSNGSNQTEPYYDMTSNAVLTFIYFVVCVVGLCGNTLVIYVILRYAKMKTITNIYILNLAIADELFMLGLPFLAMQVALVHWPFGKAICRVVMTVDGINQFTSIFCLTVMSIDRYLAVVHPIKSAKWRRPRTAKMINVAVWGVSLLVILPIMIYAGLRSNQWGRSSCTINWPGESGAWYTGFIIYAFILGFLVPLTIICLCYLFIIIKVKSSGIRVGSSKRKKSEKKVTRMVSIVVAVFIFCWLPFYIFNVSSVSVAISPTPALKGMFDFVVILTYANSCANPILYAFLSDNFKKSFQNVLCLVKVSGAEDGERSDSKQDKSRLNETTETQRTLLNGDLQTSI
Experimental: (§1) The 8-week-old female CD1 nu/nu mice were purchased from Charles River (Sulzfeld, Germany). Animal experiments were conducted according to general animal welfare regulations (German animal protection act, as amended on 18.05.2018, Art. 141 G v. 29.3.2017 I 626, approval no. 55.2-1.2-54–2532-71-13 by the General Administration of the Free State of Bavaria; Swiss animal welfare regulations: Animal Welfare Act SR 455, license: Canton de Vaud, 3781 d). To establish tumor xenografts, AR42J cells (5 × 10^6 cells in 100 µl serum-free culture medium) were inoculated subcutaneously onto the shoulder. Mice were used for experiments when tumors had grown to a diameter of 5–9 mm (7–15 days after inoculation).
4–5 MBq (0.3–0.5 nmol) of the ^68Ga-labeled SST2-ligand were injected into the tail vein of the xenograft-bearing mice. After 1 h, the mice were anesthetized (isoflurane: 1.5% alveolar concentration) and a PET image acquired (20 min, 32 × 32, 0.5 mm) using an Albira PET/SPECT/CT (Bruker Biospin Corporation, Woodbridge, CT, USA) followed by a CT scan (10 min). For blocking, 20 µg octreotide (0.8 mg/kg) were co-injected with the tracer. The images were reconstructed (Albira reconstructor, version NMI3.3) and analyzed (PMOD, V6.3.4, Bruker).

[2] = Biodistribution 1 h p.i. in AR42J xenograft bearing CD1 nu/nu mice; assay type: in vivo; settings: female, mouse, intravenous, total radioactivity, average ± Stdev
Experimental: as §1
Approximately 0.5–2.5 MBq (0.05–0.20 nmol) of the ^18F-labeled ligands were injected into the tail vein of AR42J xenograft-bearing mice under isoflurane anesthesia (1.5% alveolar concentration). The mice were sacrificed 1 h post injection (n = 3–5). Organs were removed, weighed, and the activity quantified (γ-counter).
An unpaired Welch’s t-test was applied using the GraphPad Prism software (version 10.1.2). Standard deviations for tumor-to-organ (T/O) ratios were calculated using the rules of error propagation. Thresholds for statistical significance are defined as: p > 0.05 (ns); p ≤ 0.05 (*); p ≤ 0.01 (**); p ≤ 0.001 (***); p ≤ 0.0001 (****).

[3] = In-vitro stability in PBS, human serum and mouse liver extract; assay type: in vitro ADME; settings: 1 h, 37 °C, radio RP-HPLC
Experimental: [^natF][^68Ga]rhTATE (ca. 5 MBq) was added to 500 µl samples of mouse liver extract, human serum, or PBS, respectively. The mixtures were incubated at 37 °C for 60 min. Workup of blood and liver extract samples was performed using cartridge purification (StrataX cartridge, 33 μm Polymeric Reversed Phase, 500 mg; preconditioning: 500 µl MeOH, 5 ml H2O; washing: 3 ml H2O; elution: ACN/H2O (0.1% TFA, 1:3, v/v, 300 µl). The resulting eluates were analyzed using radio RP-HPLC (Chromolith^R RP-18e; 100 × 4.6 mm; Merck KGaA; gradient of 10–90% ACN in H2O (0.1% TFA) within 8 min; flow rate: 1 ml/min). For cross-validation of HPLC results, radio RP-TLC was equally performed for all samples (1 M citric acid/NaOH, pH = 5.0; Rf: Product: 0.0–0.2.0.2; ^68Ga: 0.8–1.0.8.0).

AR42J cells = assay: Internalization into AR42J cells relative to [125I]TOC; assay type: cell-based; settings: percentage compared to internal reference [125I]TOC
Experimental: AR42J cells (European Collection of Cell Cultures, Salisbury, UK) were grown in RPMI 1640 medium (with 2 mM, L-Glu, 10% FCS; v/v, 37 °C, 5% CO2), harvested 24 ± 2 h and seeded in 24-well poly-L-lysine plates (2.0 × 10^5 cells/well in 1 ml culture medium). After removal of the medium, the cells were washed with assay medium (300 µl, RPMI 1640 with 2 mM L-Glu, 5% BSA; v/v) and incubated in assay medium (200 µl, 15 min, 37 °C, 5% CO2). 25 µl of the ^18F-labeled ligand (20 nM) and [^125I]TOC (1 nM) in assay medium were added followed by either 25 µl TOC in assay medium (100 µM, competition experiment) or 25 µl of assay medium (internalization experiment). Cells were incubated at 37 °C for 15, 30, and 60 min (n = 3 per compound and time point), respectively, and chilled on ice. The supernatant was collected, the well washed with ice-cold RPMI 1640 (300 µl), and the two fractions combined (unbound ligand). The cells were incubated with acid wash solution (300 µl, 0.9% NaCl, 50 mM NaOAc/AcOH buffer, pH = 4.6, 15 min, 4 °C) to remove receptor-bound radioligand. The supernatant was collected, and the cells washed with 300 µl ice-cold acid wash solution (combined fractions: acid releasable, receptor bound ligand). The cells were lysed with NaOH solution (300 µl, 1 M, 15 min, RT), washed with 300 µl of the same solution, the two fractions combined (internalized ligand), and all activities quantified using a γ-counter.

[4] = Lipophilicity LogDpH=7.4, shake flask method; assay type: physicochemical; settings: PBS (pH = 7.4)/n-octanol, mean of n = 8
Experimental: The LogDpH=7.4 was determined using a modified shake flask method as previously described.

[5] = design: method as in PMID 10774879; settings: PBS (pH = 7.4)/n-octanol; cited from earlier work
[6] = co-injection of 20 µg octreotide (0.8 mg/kg)

T1 sequence (P02768 25-609): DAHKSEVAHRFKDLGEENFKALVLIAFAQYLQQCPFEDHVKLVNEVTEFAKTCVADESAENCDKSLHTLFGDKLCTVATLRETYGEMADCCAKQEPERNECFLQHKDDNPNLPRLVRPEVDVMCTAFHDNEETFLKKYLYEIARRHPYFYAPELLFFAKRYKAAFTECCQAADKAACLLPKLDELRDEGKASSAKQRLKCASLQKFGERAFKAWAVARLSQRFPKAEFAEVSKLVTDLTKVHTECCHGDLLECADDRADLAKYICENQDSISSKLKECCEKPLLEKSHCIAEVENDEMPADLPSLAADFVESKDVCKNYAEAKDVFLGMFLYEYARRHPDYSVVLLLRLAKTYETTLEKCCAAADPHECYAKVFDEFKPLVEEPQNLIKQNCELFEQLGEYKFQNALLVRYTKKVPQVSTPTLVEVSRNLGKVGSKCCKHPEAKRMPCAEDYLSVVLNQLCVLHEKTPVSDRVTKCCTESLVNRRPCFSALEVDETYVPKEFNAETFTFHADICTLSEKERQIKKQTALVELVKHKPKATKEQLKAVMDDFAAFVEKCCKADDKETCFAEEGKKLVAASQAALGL

C[C@@H](O)[C@H](NC(=O)[C@@H]1CSSC[C@H](NC(=O)[C@@H](Cc2ccccc2)NC(=O)CN2CCN(CC(=O)O)CCN(CC(=O)NCCCC[C@@H](NC(=O)[C@@H](CNC(=O)C[N+](C)(C)Cc3ccc([Si](F)(C(C)(C)C)C(C)(C)C)cc3)NC(=O)[C@@H](CCC(=O)O)NC(=O)[C@@H](CCC(=O)O)NC(=O)[C@H](N)CCC(=O)O)C(=O)O)CCN(CC(=O)O)CC2)C(=O)N[C@@H](Cc2ccc(O)cc2)C(=O)N[C@H](Cc2c[nH]c3ccccc23)C(=O)N[C@@H](CCCCN)C(=O)N[C@@H]([C@@H](C)O)C(=O)N1)C(=O)O [[^18/natF][^natGa]rhTATE2.5, metal not drawn]
HSA HPAC ([1]; affinity to HSA by affinity chromatography (Chiralpak HSA column)): 84.8% | µPET kidney activity with SST2 blocking (SST2 (AR42J tumor); [6]): significantly reduced kidney activity | µPET tumor signal with SST2 blocking (SST2 (AR42J tumor); [6]): no detectable tumor signal | µPET uptake in the tumor and kidneys (SST2 (AR42J tumor); control mouse, 4 MBq, 0.5 nmol tracer/mouse): intense | tissue uptake at 1 h ([2]; adrenal glands, AR42J tumor-bearing CD1 nu/nu mice, read-out: Biodistribution Adrenal Glands): 1.52 ± 0.21 %ID/g | tissue uptake at 1 h ([2]; blood, AR42J tumor-bearing CD1 nu/nu mice, read-out: Biodistribution Blood): 0.32 ± 0.11 %ID/g | tissue uptake at 1 h ([2]; femur, AR42J tumor-bearing CD1 nu/nu mice, read-out: Biodistribution Femur): 1.05 ± 0.3 %ID/g | tissue uptake at 1 h ([2]; heart, AR42J tumor-bearing CD1 nu/nu mice, read-out: Biodistribution Heart): 0.18 ± 0.05 %ID/g | tissue uptake at 1 h ([2]; intestine, AR42J tumor-bearing CD1 nu/nu mice, read-out: Biodistribution Intestine): 1.3 ± 0.25 %ID/g | tissue uptake at 1 h ([2]; kidney, AR42J tumor-bearing CD1 nu/nu mice, read-out: Biodistribution Kidney): 12.5 ± 3.5 %ID/g | tissue uptake at 1 h ([2]; liver, AR42J tumor-bearing CD1 nu/nu mice, read-out: Biodistribution Liver): 0.4 ± 0.12 %ID/g | tissue uptake at 1 h ([2]; lung, AR42J tumor-bearing CD1 nu/nu mice, read-out: Biodistribution Lung): 2.73 ± 0.46 %ID/g | tissue uptake at 1 h ([2]; muscle, AR42J tumor-bearing CD1 nu/nu mice, read-out: Biodistribution Muscle): 0.04 ± 0.02 %ID/g | tissue uptake at 1 h ([2]; pancreas, AR42J tumor-bearing CD1 nu/nu mice, read-out: Biodistribution Pancreas): 11.5 ± 2.32 %ID/g | tissue uptake at 1 h ([2]; spleen, AR42J tumor-bearing CD1 nu/nu mice, read-out: Biodistribution Spleen): 0.35 ± 0.07 %ID/g | tissue uptake at 1 h ([2]; stomach, AR42J tumor-bearing CD1 nu/nu mice, read-out: Biodistribution Stomach): 6.46 ± 1 %ID/g | tissue uptake at 1 h ([2]; tumor (AR42J xenograft), AR42J xenograft, CD1 nu/nu mice, read-out: Biodistribution Tumor): 18.6 ± 6.18 %ID/g | in vitro stability [3]: stable over 60 min | Internalization (AR42J cells): 357% | LogDpH=7.4 [4]: −2.30

C[C@@H](O)[C@H](NC(=O)[C@@H]1CSSC[C@H](NC(=O)[C@@H](Cc2ccccc2)NC(=O)CN2CCN(CC(=O)O)CCN(CC(=O)O)CCN(CC(=O)O)CC2)C(=O)N[C@@H](Cc2ccc(O)cc2)C(=O)N[C@H](Cc2c[nH]c3ccccc23)C(=O)N[C@@H](CCCCN)C(=O)N[C@@H]([C@@H](C)O)C(=O)N1)C(=O)O [[^nat/68Ga]DOTA-TATE, metal not drawn, reference compound]
HSA HPAC [1]: 88.9% | LogDpH=7.4 [5]: −3.69 [24] | Internalization (AR42J cells): 570%

From publication PMC12920295, “Novel radiohybrid PET-Tracers for SST2-targeted imaging of neuroendocrine tumors” (European Journal of Nuclear Medicine and Molecular Imaging, 2025)
